{
  "source": "paper PMC6934184",
  "about": "“Selective DNA-PKcs inhibition extends the therapeutic index of localized radiotherapy and chemotherapy” (The Journal of Clinical Investigation, 2019)",
  "molecular_target": "T1, PI4KB (PI4K beta) (Homo sapiens, UniProt Q9UBF8)",
  "T1 construct": "purchased Thermo Fisher Scientific (Life Technologies) SelectScreen",
  "T1 sequence (Q9UBF8 whole entry)": "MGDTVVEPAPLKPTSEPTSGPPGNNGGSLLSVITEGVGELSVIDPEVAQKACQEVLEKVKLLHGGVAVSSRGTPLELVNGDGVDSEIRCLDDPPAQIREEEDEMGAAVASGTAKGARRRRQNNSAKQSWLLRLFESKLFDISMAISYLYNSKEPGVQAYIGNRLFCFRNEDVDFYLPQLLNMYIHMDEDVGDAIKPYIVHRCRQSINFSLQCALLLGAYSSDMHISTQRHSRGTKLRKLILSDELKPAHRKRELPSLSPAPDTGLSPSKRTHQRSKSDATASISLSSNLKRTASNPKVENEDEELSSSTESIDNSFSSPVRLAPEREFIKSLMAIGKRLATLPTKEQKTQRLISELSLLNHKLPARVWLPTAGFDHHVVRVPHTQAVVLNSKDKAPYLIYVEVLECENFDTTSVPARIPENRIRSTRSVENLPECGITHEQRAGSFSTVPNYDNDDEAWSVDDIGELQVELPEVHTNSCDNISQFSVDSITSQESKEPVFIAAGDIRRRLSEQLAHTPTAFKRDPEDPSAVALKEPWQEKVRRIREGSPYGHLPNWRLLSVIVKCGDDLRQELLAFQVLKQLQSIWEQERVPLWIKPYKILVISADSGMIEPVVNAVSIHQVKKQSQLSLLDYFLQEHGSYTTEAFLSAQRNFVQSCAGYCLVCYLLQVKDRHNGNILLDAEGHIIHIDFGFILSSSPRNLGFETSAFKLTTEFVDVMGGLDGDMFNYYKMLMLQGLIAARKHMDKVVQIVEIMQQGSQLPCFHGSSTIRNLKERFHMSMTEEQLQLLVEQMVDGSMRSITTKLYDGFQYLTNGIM",
  "assay": "SelectScreen Adapta",
  "type": "biochemical",
  "procedure,_shortened": "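NU5455 was profiled across the SelectScreen Broad panel of kinase activity and binding assays. Z'LYTE reactions such as CSF1R ran at apparent Km ATP, while the Adapta CAMK1 assay used ATP listed as 10. Values are given as percent.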",
  "data": [
    {"smiles": "CN(C(=O)CN1CCOCC1)c1ccc2sc3c(-c4cccc5c(=O)cc(N6CC7CCC(C6)O7)oc45)cccc3c2c1", "note": "[NU5455]", "values": [
      {"measurement": "inhibition at 1 µM", "value": -4.7, "unit": "%"}
    ]}
  ]
}
